The text below walks through data of ChEMBL document CHEMBL1201862, “PubChem BioAssay data set” (2004).

Test systems include OVCAR-8; DLD-1; UACC-62; KM-20L2; COLO 205; 786-0; RXF 393; SW-620; UO-31; SN12C; SR; MDA-MB-435; PC-3; MCF7; MDA-MB-231; NCI/ADR-RES; T47D; MDA-N; Hs-578T; BT-549.
Common to all, as to test: DTP human tumour cell line panel, 48 h

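In this assay, cells in 96-well plates receive the compound at five concentrations for 48 hours. Endpoints are linearly interpolated between the surrounding concentrations. Here, GI50 denotes the concentration required for 50% inhibition of growth.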 Active and inactive are the calls of the source. Rule as the data show it: active = GI50 up to about 1.1 µM and inactive = higher.

With `O=C1C[C@@H]2[C@@H](C=CC23CCCC3)N1O`, the GI50 in the assay on OVCAR-8, in the assay with DLD-1, in the assay with UACC-62, with KM-20L2, in the assay with COLO 205 and in the assay with 786-0 was > 100 µM (inactive) in each case. In addition, the GI50 with RXF 393, in the assay with SW-620, with UO-31 and in the assay on SN12C was > 100 µM (inactive) in each case.
Turning to `CC(C)OP(=O)(OC(C)C)/C(=N/Nc1ccc([N+](=O)[O-])cc1)Nc1ccc(N/C(=N\Nc2ccc([N+](=O)[O-])cc2)P(=O)(OC(C)C)OC(C)C)cc1`, the GI50 (as a rule, the concentration that inhibits growth by half) with OVCAR-8 was 13.6 µM (inactive); in the assay on DLD-1, 4.72 µM (inactive); in the assay on SR, 5.66 µM (inactive); in the assay on UACC-62, 2.2 µM (inactive); in the assay on KM-20L2, 14.9 µM (inactive); in the assay with COLO 205 it was 5.2 µM (inactive). Besides, the GI50 in the assay with UO-31 was 21.4 µM (inactive); with SN12C it was > 100 µM (inactive).
Turning to `CC1=C[C@@H]2[C@@H](CC(CO)=C[C@H]3[C@@H]4C(C)(C)[C@]4(OCC(C)C)[C@H](OCC(C)C)[C@@H](C)[C@]23O)C1=O`, the GI50 is 0.426 µM (active) with MDA-MB-435; 1.49 µM (inactive) in the assay with PC-3; 2.56 µM (inactive) in the assay on MCF7; 1.73 µM (inactive) in the assay with OVCAR-8; 1.39 µM (inactive) in the assay with MDA-MB-231; 1.14 µM (inactive) in the assay with SR. Besides, the GI50 in the assay with UACC-62 is 1.43 µM (inactive); in the assay with NCI/ADR-RES, 2.55 µM (inactive); in the assay with COLO 205, 0.243 µM (active); with T47D it was 2.16 µM (inactive); with MDA-N it was 0.649 µM (active); in the assay on 786-0 it was 1.47 µM (inactive). The GI50 in the assay with Hs-578T was 0.9 µM (active); with RXF 393, 1.54 µM (inactive); in the assay with SW-620 it was 1.19 µM (inactive); with BT-549 it was 1.14 µM (inactive); with UO-31 it was 2.22 µM (inactive); in the assay on SN12C it was 1.73 µM (inactive).
On to `O=S(=O)(N=S(c1ccccc1)c1ccccc1)c1ccccc1`, for which the GI50 in the assay with MDA-MB-435, in the assay on PC-3, in the assay on MCF7, in the assay with OVCAR-8, with SR and in the assay on NCI/ADR-RES was > 100 µM (inactive) each time. Besides, the GI50 with COLO 205, in the assay on T47D, with 786-0, with RXF 393, in the assay with SW-620 and in the assay with BT-549 was > 100 µM (inactive) each time. Besides, the GI50 in the assay on UO-31 and in the assay with SN12C was > 100 µM (inactive) throughout.
With `Nc1ncnc2c1cnn2Cc1ccc(Cl)cc1`, the GI50 with MDA-MB-435 was > 100 µM (inactive); in the assay on PC-3 it was > 100 µM (inactive); in the assay with MCF7 it was > 100 µM (inactive); with OVCAR-8, > 100 µM (inactive); in the assay on MDA-MB-231, > 100 µM (inactive); in the assay on NCI/ADR-RES it was 83 µM (inactive). Moreover, the GI50 in the assay on COLO 205, in the assay with T47D, with MDA-N, with Hs-578T, with RXF 393 and with SW-620 was > 100 µM (inactive) each time. Further, the GI50 with UO-31 is 78.5 µM (inactive); in the assay on SN12C it was > 100 µM (inactive).
With `N#CCCN(CCC#N)c1ccc(C(=N/c2ccc(Cl)cc2)/N=N/c2ccc(Cl)cc2)cc1`, the GI50 with MDA-MB-435 is 18.2 µM (inactive); in the assay on PC-3, 15.6 µM (inactive); with MCF7, 10.1 µM (inactive); in the assay on OVCAR-8, 17.6 µM (inactive); in the assay with MDA-MB-231, 19.5 µM (inactive); in the assay with SR, 18.9 µM (inactive). The GI50 was 10.9 µM (inactive) with UACC-62; 17.2 µM (inactive) with NCI/ADR-RES; 16.2 µM (inactive) in the assay with COLO 205; 7.6 µM (inactive) in the assay on T47D; 19.5 µM (inactive) in the assay with MDA-N; 18.3 µM (inactive) in the assay with 786-0. Moreover, the GI50 is 19.4 µM (inactive) with Hs-578T; 14.3 µM (inactive) with RXF 393; 17.7 µM (inactive) with SW-620; 14 µM (inactive) in the assay on BT-549; 15.2 µM (inactive) in the assay on UO-31; 17.7 µM (inactive) in the assay with SN12C.
As for `CCCCNC(=S)Nc1nc(C(=O)NNC(=S)NC2CCCCC2)cs1`, the GI50 in the assay with MDA-MB-435 was > 100 µM (inactive); with PC-3, > 100 µM (inactive); with MCF7 it was > 100 µM (inactive); with OVCAR-8, 69.3 µM (inactive); in the assay with MDA-MB-231, > 100 µM (inactive); in the assay on SR, 8.07 µM (inactive). Also, the GI50 is > 100 µM (inactive) with UACC-62; 74.3 µM (inactive) in the assay on NCI/ADR-RES; > 100 µM (inactive) in the assay with COLO 205; > 100 µM (inactive) with T47D; > 100 µM (inactive) in the assay with MDA-N; > 100 µM (inactive) in the assay with 786-0. In addition, the GI50 in the assay on SW-620 was > 100 µM (inactive); with BT-549, > 100 µM (inactive); with UO-31, 45.6 µM (inactive); in the assay on SN12C, > 100 µM (inactive).
Take `O=C(O)c1ccccc1CN1CCCC(C(=O)O)C1` (configuration not stated): the GI50 with MDA-MB-435, in the assay on PC-3, with MCF7, with OVCAR-8, in the assay with MDA-MB-231 and in the assay with SR was > 100 µM (inactive) in each case. Further, the GI50 with UACC-62, with NCI/ADR-RES, in the assay on COLO 205, in the assay with T47D, in the assay on MDA-N and with 786-0 was > 100 µM (inactive) each time. The GI50 in the assay on Hs-578T, in the assay on RXF 393, in the assay on SW-620, in the assay with BT-549, in the assay with UO-31 and in the assay on SN12C was > 100 µM (inactive) each time.
Turning to `N#Cc1c(N)nc(Nc2cccc3ccccc23)c(C#N)c1C#N`, the GI50 in the assay with MDA-MB-435 is 3.31 µM (inactive); in the assay with PC-3, 4.27 µM (inactive); in the assay with MCF7, 2.79 µM (inactive); with OVCAR-8, 5.25 µM (inactive); with MDA-MB-231, 3.73 µM (inactive); in the assay on SR, 3 µM (inactive). Also, the GI50 with UACC-62 is 4.18 µM (inactive); in the assay on NCI/ADR-RES, 2.71 µM (inactive); in the assay with COLO 205, > 10 µM (inactive); in the assay on T47D, 8.09 µM (inactive); in the assay on MDA-N, 1.84 µM (inactive); with Hs-578T, 2.43 µM (inactive). In addition, the GI50 is > 10 µM (inactive) in the assay on RXF 393, 3.48 µM (inactive) with SW-620, 3.82 µM (inactive) in the assay with UO-31 and 3.42 µM (inactive) in the assay on SN12C.
On to `COC(=O)C(NC(=O)c1ccccc1)C(c1c(O)cc(O)cc1O)P(=O)(OC)OC` (configuration not stated), for which the GI50 with OVCAR-8 is > 100 µM (inactive); in the assay on DLD-1, > 100 µM (inactive); in the assay on SR, > 100 µM (inactive); in the assay on UACC-62 it was 6.73 µM (inactive); with KM-20L2 it was > 100 µM (inactive); in the assay with COLO 205 it was > 100 µM (inactive). Further, the GI50 in the assay with SW-620, in the assay on UO-31 and with SN12C was > 100 µM (inactive) throughout.
Take `COC(=O)CCC(=O)c1ccc2c(c1)CCC2`: the GI50 with MDA-MB-435, with PC-3, in the assay with MCF7, in the assay on OVCAR-8, in the assay on MDA-MB-231 and in the assay with SR was > 100 µM (inactive) throughout. Further, the GI50 in the assay with NCI/ADR-RES, with T47D, in the assay on MDA-N, in the assay with 786-0, with Hs-578T and in the assay with RXF 393 was > 100 µM (inactive) in each case. Moreover, the GI50 in the assay on SW-620 and with UO-31 was > 100 µM (inactive) in each case.
Turning to `C=C1C(=O)O[C@@H]2[C@H](O)[C@@H](C)[C@@H]3C=CC(=O)[C@@]3(C)[C@H](OC(=O)C=C(C)C)[C@H]12`, the GI50 in the assay on MCF7 is 0.56 µM (active); with OVCAR-8, 0.421 µM (active); in the assay with DLD-1, 0.277 µM (active); in the assay with UACC-62 it was 0.625 µM (active); with NCI/ADR-RES, 0.536 µM (active); in the assay with KM-20L2, 1.66 µM (inactive). In addition, the GI50 was 0.49 µM (active) in the assay on COLO 205, 0.353 µM (active) in the assay with SW-620, 2.82 µM (inactive) with UO-31 and 0.877 µM (active) in the assay with SN12C.
For the compound `NC(CCCCO)C(=O)O` (configuration not stated), the GI50 in the assay with MDA-MB-435, in the assay on PC-3, in the assay on MCF7, in the assay with OVCAR-8, in the assay with MDA-MB-231 and with SR was > 100 µM (inactive) throughout. For the same compound, the GI50 with UACC-62, in the assay with NCI/ADR-RES, in the assay on COLO 205, in the assay with T47D, in the assay with Hs-578T and with RXF 393 was > 100 µM (inactive) in each case. In addition, the GI50 in the assay on SW-620, with BT-549 and in the assay on UO-31 was > 100 µM (inactive) in each case.
As for `O=S(O)CCCCCSSSCCCCCS(=O)O`, the GI50 with DLD-1 is 35.4 µM (inactive); with SR, 3.48 µM (inactive); in the assay on UACC-62, 22.8 µM (inactive); with KM-20L2, > 100 µM (inactive); with RXF 393, 14.4 µM (inactive); with UO-31, 35.3 µM (inactive). Moreover, the GI50 in the assay on SN12C is 53.5 µM (inactive).
